The subject of experiment [1] is Pseudomonas aeruginosa. Put plainly: Antibacterial activity against multidrug/extremely drug-resistant/colistin-susceptible Pseudomonas aeruginosa isolate 101885. Format: functional.
In experiment [2] the test system is Pseudomonas aeruginosa. Kind of experiment: Antibacterial activity against multidrug-resistant/tobramycin-susceptible Pseudomonas aeruginosa isolate 79199. Type of experiment: functional.
Experiment [3] relates to Pseudomonas aeruginosa. Kind of experiment: Antibacterial activity against multidrug-resistant/tobramycin-susceptible Pseudomonas aeruginosa isolate 85322. Format: functional.
Experiment [4] has as its system Pseudomonas aeruginosa. Put plainly: Antibacterial activity against multidrug-resistant/tobramycin-susceptible Pseudomonas aeruginosa isolate 108590. Type of experiment: functional.
The test system of experiment [5] is Pseudomonas aeruginosa. Put plainly: Antibacterial activity against multidrug/extremely drug-resistant/colistin-susceptible Pseudomonas aeruginosa isolate 264-104354. Type of experiment: functional.
Experiment [6] concerns Pseudomonas aeruginosa. Kind of experiment: Antibacterial activity against multidrug/extremely drug-resistant/colistin-susceptible Pseudomonas aeruginosa isolate 260-97103. Type of experiment: functional.
The subject of experiment [7] is Pseudomonas aeruginosa. Put plainly: Antibacterial activity against multidrug-resistant/tobramycin-susceptible Pseudomonas aeruginosa isolate 84745. Type of experiment: functional.
Experiment [8] deals with Pseudomonas aeruginosa. Put plainly: Antibacterial activity against multidrug/extremely drug-resistant/colistin-susceptible Pseudomonas aeruginosa isolate 262-101856. Type of experiment: functional.
The subject of experiment [9] is Pseudomonas aeruginosa. Put plainly: Antibacterial activity against multidrug-resistant/tobramycin-susceptible Pseudomonas aeruginosa isolate 92014. Type of experiment: functional.
In experiment [10] the test system is Pseudomonas aeruginosa. Kind of experiment: Antibacterial activity against multidrug-resistant/tobramycin-susceptible Pseudomonas aeruginosa isolate 86141. Type of experiment: functional.
Experiment [11] concerns Pseudomonas aeruginosa. Put plainly: Antibacterial activity against multidrug-resistant/tobramycin-susceptible Pseudomonas aeruginosa isolate 83182. Type of experiment: functional.
For experiment [12], the system named is Pseudomonas aeruginosa. Put plainly: Antibacterial activity against multidrug/extremely drug-resistant/colistin-susceptible Pseudomonas aeruginosa isolate 259-96918. Format: functional.
Experiment [13] concerns Pseudomonas aeruginosa. Put plainly: Antibacterial activity against Pseudomonas aeruginosa PAO1. Type of experiment: functional.
Experiment [14] relates to Pseudomonas aeruginosa. Kind of experiment: Antibacterial activity against multidrug/extremely drug-resistant/colistin-susceptible Pseudomonas aeruginosa isolate 100036. Format: functional.
Experiment [15] deals with Pseudomonas aeruginosa. Put plainly: Antibacterial activity against multidrug-resistant/tobramycin-susceptible Pseudomonas aeruginosa isolate 86079. Type of experiment: functional.
For experiment [16], the system named is Pseudomonas aeruginosa. Kind of experiment: Antibacterial activity against pandrug-resistant Pseudomonas aeruginosa isolate 91433. Format: functional.
The test system of experiment [17] is Pseudomonas aeruginosa. Put plainly: Antibacterial activity against multidrug-resistant/tobramycin-susceptible Pseudomonas aeruginosa isolate 86053. Type of experiment: functional.
Experiment [18] relates to Pseudomonas aeruginosa. Kind of experiment: Antibacterial activity against multidrug-resistant/tobramycin-susceptible Pseudomonas aeruginosa isolate 86052. Format: functional.
Experiment [19] concerns Pseudomonas aeruginosa. Put plainly: Antibacterial activity against multidrug-resistant/tobramycin-susceptible Pseudomonas aeruginosa isolate 80621. Format: functional.
In experiment [20] the test system is Pseudomonas aeruginosa. Kind of experiment: Induction of cytoplasmic membrane depolarization in Pseudomonas aeruginosa PAO1 by DiSC3(5) dye based fluorescence assay. Type of experiment: functional.
In experiment [21] the test system is Pseudomonas aeruginosa. Kind of experiment: Antibacterial activity against pandrug-resistant Pseudomonas aeruginosa isolate 101243. Type of experiment: functional.
The test system of experiment [22] is Pseudomonas aeruginosa. Put plainly: Antibacterial activity against multidrug-resistant/tobramycin-susceptible Pseudomonas aeruginosa isolate 86067. Format: functional.
Experiment [23] concerns Staphylococcus aureus. Kind of experiment: Antibacterial activity against Staphylococcus aureus ATCC 29213 after 24 hrs by microtitre broth dilution method. Format: functional. Conditions: ATCC 29213, 24 h.
Experiment [24] concerns Staphylococcus epidermidis. Put plainly: Antibacterial activity against methicillin-resistant Staphylococcus epidermidis isolate CAN-ICU 61589 after 24 hrs by microtitre broth dilution method. Format: functional. Conditions: isolate CAN-ICU 61589, 24 h. In general terms: Dilution methods test growth across graded concentrations, often in twofold steps.
Experiment [25] has as its system Pseudomonas aeruginosa. Kind of experiment: Antibacterial activity against gentamicin/tobramycin-resistant Pseudomonas aeruginosa isolate CANWARD-2011 96846 after 24 hrs by microtitre broth dilution method. The settings on record: isolate CANWARD-2011 96846, 24 h. Type of experiment: functional.
Experiment [26] relates to Staphylococcus epidermidis. Kind of experiment: Antibacterial activity against methicillin-susceptible Staphylococcus epidermidis isolate CANWARD-2008 81388 after 24 hrs by microtitre broth dilution method. Conditions: isolate CANWARD-2008 81388, 24 h. Format: functional.
The test system of experiment [27] is Enterococcus faecalis. Put plainly: Antibacterial activity against Enterococcus faecalis ATCC 29212 after 24 hrs by microtitre broth dilution method. Type of experiment: functional. The settings on record: ATCC 29212, 24 h.
Experiment [28] has as its system Acinetobacter baumannii. Kind of experiment: Antibacterial activity against Acinetobacter baumannii isolate CAN-ICU 63169 after 24 hrs by microtitre broth dilution method. Type of experiment: functional. Conditions: isolate CAN-ICU 63169, 24 h.
A short description of experiment [29]: Inhibition of Pseudomonas aeruginosa DNA gyrase A assessed as inhibition of DNA supercoiling using PBR322 DNA as substrate after 30 mins by SYBR Gold staining based agarose gel electrophoresis.
Experiment [30] has as its system Escherichia coli. Kind of experiment: Antibacterial activity against amikacin-resistant Escherichia coli isolate CAN-ICU 63074 after 24 hrs by microtitre broth dilution method. Format: functional. Conditions: isolate CAN-ICU 63074, 24 h.
The test system of experiment [31] is Streptococcus pneumoniae. Kind of experiment: Antibacterial activity against Streptococcus pneumoniae ATCC 49619 after 24 hrs by microtitre broth dilution method. Format: functional. The settings on record: ATCC 49619, 24 h.
In experiment [32] the test system is Escherichia coli. Kind of experiment: Antibacterial activity against gentamicin-resistant Escherichia coli isolate CAN-ICU 61714 after 24 hrs by microtitre broth dilution method. The settings on record: isolate CAN-ICU 61714, 24 h. Format: functional.
For experiment [33], the system named is Stenotrophomonas maltophilia. Put plainly: Antibacterial activity against Stenotrophomonas maltophilia isolate CAN-ICU 62584 after 24 hrs by microtitre broth dilution method. Format: functional. The settings on record: isolate CAN-ICU 62584, 24 h.
The subject of experiment [34] is Escherichia coli. Kind of experiment: Antibacterial activity against Escherichia coli ATCC 25922 after 24 hrs by microtitre broth dilution method. Format: functional. The settings on record: ATCC 25922, 24 h.
The subject of experiment [35] is Pseudomonas aeruginosa. Kind of experiment: Antibacterial activity against Pseudomonas aeruginosa ATCC 27853 after 24 hrs by microtitre broth dilution method. Format: functional. Conditions: ATCC 27853, 24 h.
In experiment [36] the test system is Pseudomonas aeruginosa. Kind of experiment: Antibacterial activity against gentamicin-resistant Pseudomonas aeruginosa isolate CAN-ICU 62308 after 24 hrs by microtitre broth dilution method. The settings on record: isolate CAN-ICU 62308, 24 h. Format: functional.
For experiment [37], the system named is Escherichia coli. Put plainly: Antibacterial activity against gentamicin/tobramycin/ciprofloxacin-resistant Escherichia coli isolate CANWARD-2011 97615 harboring AAC3-2A after 24 hrs by microtitre broth dilution method. Format: functional. The settings on record: isolate CANWARD-2011 97615, 24 h.
The subject of experiment [38] is Staphylococcus aureus. Put plainly: Antibacterial activity against methicillin-resistant Staphylococcus aureus ATCC 33592 after 24 hrs by microtitre broth dilution method. Format: functional. The settings on record: ATCC 33592, 24 h.
The test system of experiment [39] is Klebsiella pneumoniae. Kind of experiment: Antibacterial activity against Klebsiella pneumoniae ATCC 13883 after 24 hrs by microtitre broth dilution method. Format: functional. Conditions: ATCC 13883, 24 h.
Experiment [40] concerns Enterococcus faecium. Put plainly: Antibacterial activity against Enterococcus faecium ATCC 27270 after 24 hrs by microtitre broth dilution method. Format: functional. Conditions: ATCC 27270, 24 h.

Bounds are passed on as bounds.

The MIC is the lowest concentration that inhibits growth of the organism. Low readings indicate a more susceptible organism, high ones a less susceptible organism. Broadly, the IC50 is the midpoint of a concentration-inhibition curve.

With COLISTIN, the MIC in experiment [1], in experiment [2], in experiment [3], in [4], in experiment [5] and in experiment [6] was 1 µg/mL throughout. Also, the MIC was found to be 2 µg/mL in experiment [7]; 2 µg/mL in experiment [8]; 1 µg/mL in experiment [9]; 1 µg/mL in experiment [10]; 1 µg/mL in [11]; 1 µg/mL in [12]. Also, the MIC was 1 µg/mL in [13]; 2 µg/mL in experiment [14]; 1 µg/mL in [15]; 4 µg/mL in [16]; 1 µg/mL in experiment [17]; 1 µg/mL in [18]. Besides, the MIC stood at 2 µg/mL in [19], 1020 µg/mL in experiment [21] and 0.5 µg/mL in [22]. Besides, the Activity entry in experiment [20] is “Dose-dependent effect”.

`COc1c(N2C[C@@H]3CCCN(CCCCCCCCCCCCOC[C@H]4O[C@H](O[C@@H]5[C@@H](O)[C@H](O[C@H]6O[C@H](CN)[C@@H](O)C[C@H]6N)[C@@H](N)C[C@H]5N)[C@H](O)[C@@H](N)[C@@H]4O)[C@@H]3C2)c(F)cc2c(=O)c(C(=O)O)cn(C3CC3)c12.Cl.Cl.Cl.Cl.Cl`: the MIC was 16 µg/mL in experiment [23]; 8 µg/mL in [24]; 64 µg/mL in experiment [25]; greater than 32 µg/mL in experiment [5]; 8 µg/mL in experiment [26]; 32 µg/mL in experiment [27]. Further, the MIC was greater than 128 µg/mL in [28]; 32 µg/mL in experiment [6]; 64 µg/mL in experiment [30]; 64 µg/mL in [31]; 64 µg/mL in experiment [32]; greater than 128 µg/mL in experiment [33]. The MIC in [34] was 16 µg/mL; in [8], greater than 32 µg/mL; in experiment [35] it was 64 µg/mL; in [36], 32 µg/mL; in experiment [37] it was 128 µg/mL; in experiment [12], greater than 32 µg/mL. Also, the MIC in experiment [13] was greater than 32 µg/mL; in [38], 16 µg/mL; in [39], 16 µg/mL; in experiment [40] it was 16 µg/mL. Moreover, in experiment [29], the IC50 came out at 2600 nM.

The values above are taken from ChEMBL document CHEMBL3856229, “Hybrid Antibiotic Overcomes Resistance in P. aeruginosa by Enhancing Outer Membrane Penetration and Reducing Efflux” (J Med Chem, 2016).
